From patent publication US4017595A (Research Corporation, priority 1975, dated 1977)

Assay: Organ distribution of Indium-113m EDTMP and DTPMP complexes in rabbits, simultaneous study with Strontium-85
Type: in vivo, adult albino rabbits
Settings: DTPMP group; for % Dose/1% Bodyweight, Average Bone: mean of femur, tibia, spine and pelvis; for % Dose in Whole Organ, Blood / % Dose in Whole Organ, Kidney / % Dose in Whole Organ, Liver / % Dose in Whole Organ, Marrow / % Dose in Whole Organ, Muscle / % Dose in Whole Organ, One Femur / % Dose in Whole Organ, One Tibia / % Dose in Whole Organ, Urine / % Dose/1% Bodyweight, Blood / % Dose/1% Bodyweight, Femur / % Dose/1% Bodyweight, Kidney / % Dose/1% Bodyweight, Liver / % Dose/1% Bodyweight, Marrow / % Dose/1% Bodyweight, Muscle / % Dose/1% Bodyweight, Pelvis / % Dose/1% Bodyweight, Spine / % Dose/1% Bodyweight, Tibia / Ratio Bone/Blood / Ratio Bone/Marrow / Ratio Bone/Muscle: rabbit i.v.
Method: 0.5-1.0 mCi of the complexes prepared according to Examples 1 and 4 (containing 2-5 mg of the phosphonate complex) were injected intravenously into adult albino rabbits weighing 3.5-5 kg. […] Organ distribution characteristics of these compositions were determined after sacrificing the animals 1-4 hours after injection using the method described in Perez et al, J. Nucl. Med. 13:788-789, 1972; Subramanian et al, Radiology, 98:192-196, 1971; Subramanian et al, Radiology, 102:701-704, 1972; Subramanian et al, J. Nucl. Med., 13:947-950, 1972; Tofe et al, J. Nucl. Med., 15:69-74, 1974; Yano, J. Nucl Med., 14:73-78, 1973; Castronova et al, J. Nucl. Med., 13:823-827, 1972; and Subramanian et al, J. Nucl. Med., August, 1975 (U.S. application Ser. No. 368,473, filed June 11, 1973). Appropriate corrections were made for Strontium-85 contributions in the Indium-113m windows.
For each time interval 3 animals were used and average values are set forth. The average bone concentrations expressed as % dose/1% body weight: […]
% dose/1% body weight [formula] are the mean of the concentrations in bone samples from femur, tibia, spine and pelvis. This value was calculated for individual rabbits and the mean value of these averages are shown. The values for ratios were calculated in a similar manner.
With respect to Table 1, Strontium 85 was employed as a biological standard to compare the uptake in various organs of individual groups of animals. In quantifying the bone uptake, it is necessary to compare more than merely the indium concentration from one group to another. In addition, the ratios of indium to strontium from each group should be compared because of the individual variation of bone uptake in animals.

Which “% Dose/1% Bodyweight, Average Bone” value (1 Hr.) does the source give for O=P(O)(O)CN(CCN(CP(=O)(O)O)CP(=O)(O)O)CCN(CP(=O)(O)O)CP(=O)(O)O [DTPMP, diethylene triamine penta(methylene phosphonic) acid] here?
The value was 5.14 % Dose/1% Bodyweight.

And the “% Dose in Whole Organ, Blood” value (1 Hr.)?
The value was 8.61 % Dose.

And the “% Dose in Whole Organ, Kidney” value (1 Hr.)?
The value was 2.43 % Dose.

And the “% Dose in Whole Organ, Liver” value (1 Hr.)?
Its value is 0.702 % Dose.

And the “% Dose in Whole Organ, Marrow” value (1 Hr.)?
Its value is 0.710 % Dose.

And the “% Dose in Whole Organ, Muscle” value (1 Hr.)?
Its value is 4.61 % Dose.

And the “% Dose in Whole Organ, One Femur” value (1 Hr.)?
Its value is 0.782 % Dose.

And the “% Dose in Whole Organ, One Tibia” value (1 Hr.)?
Its value is 0.641 % Dose.

And the “% Dose in Whole Organ, Urine” value (1 Hr.)?
Its value is 31.2 % Dose.

What about the “% Dose/1% Bodyweight, Blood” value (1 Hr.) of the same compound?
The value was 1.23 % Dose/1% Bodyweight.

And the “% Dose/1% Bodyweight, Femur” value (1 Hr.)?
The value was 3.57 % Dose/1% Bodyweight.

What about the “% Dose/1% Bodyweight, Kidney” value (1 Hr.) of the same compound?
The value was 5.62 % Dose/1% Bodyweight.

What about the “% Dose/1% Bodyweight, Liver” value (1 Hr.) of the same compound?
The value was 0.276 % Dose/1% Bodyweight.

What about the “% Dose/1% Bodyweight, Marrow” value (1 Hr.) of the same compound?
Its value is 0.322 % Dose/1% Bodyweight.

And the “% Dose/1% Bodyweight, Muscle” value (1 Hr.)?
The value was 0.107 % Dose/1% Bodyweight.

And the “% Dose/1% Bodyweight, Pelvis” value (1 Hr.)?
Its value is 7.15 % Dose/1% Bodyweight.

And the “% Dose/1% Bodyweight, Spine” value (1 Hr.)?
Its value is 4.80 % Dose/1% Bodyweight.

And the “% Dose/1% Bodyweight, Tibia” value (1 Hr.)?
Its value is 3.39 % Dose/1% Bodyweight.

And the “Ratio Bone/Blood” value (1 Hr.)?
Its value is 4.17.

And the “Ratio Bone/Marrow” value (1 Hr.)?
The value was 15.9.

What about the “Ratio Bone/Muscle” value (1 Hr.) of the same compound?
The value was 48.0.

What about the “% Dose/1% Bodyweight, Average Bone” value (2 Hr.) of the same compound?
The value was 4.58 % Dose/1% Bodyweight.

And the “% Dose in Whole Organ, Blood” value (2 Hr.)?
Its value is 3.88 % Dose.

And the “% Dose in Whole Organ, Kidney” value (2 Hr.)?
Its value is 1.09 % Dose.

What about the “% Dose in Whole Organ, Liver” value (2 Hr.) of the same compound?
Its value is 0.453 % Dose.

And the “% Dose in Whole Organ, Marrow” value (2 Hr.)?
The value was 0.340 % Dose.

What about the “% Dose in Whole Organ, Muscle” value (2 Hr.) of the same compound?
Its value is 1.92 % Dose.

And the “% Dose in Whole Organ, One Femur” value (2 Hr.)?
The value was 0.648 % Dose.

And the “% Dose in Whole Organ, One Tibia” value (2 Hr.)?
Its value is 0.519 % Dose.

And the “% Dose in Whole Organ, Urine” value (2 Hr.)?
The value was 65.7 % Dose.

What about the “% Dose/1% Bodyweight, Blood” value (2 Hr.) of the same compound?
The value was 0.555 % Dose/1% Bodyweight.

What about the “% Dose/1% Bodyweight, Femur” value (2 Hr.) of the same compound?
The value was 3.07 % Dose/1% Bodyweight.

And the “% Dose/1% Bodyweight, Kidney” value (2 Hr.)?
Its value is 2.40 % Dose/1% Bodyweight.

And the “% Dose/1% Bodyweight, Liver” value (2 Hr.)?
Its value is 0.173 % Dose/1% Bodyweight.

What about the “% Dose/1% Bodyweight, Marrow” value (2 Hr.) of the same compound?
Its value is 0.154 % Dose/1% Bodyweight.

And the “% Dose/1% Bodyweight, Muscle” value (2 Hr.)?
The value was 0.044 % Dose/1% Bodyweight.

What about the “% Dose/1% Bodyweight, Pelvis” value (2 Hr.) of the same compound?
The value was 6.15 % Dose/1% Bodyweight.

What about the “% Dose/1% Bodyweight, Spine” value (2 Hr.) of the same compound?
The value was 4.59 % Dose/1% Bodyweight.

And the “% Dose/1% Bodyweight, Tibia” value (2 Hr.)?
Its value is 2.92 % Dose/1% Bodyweight.

And the “Ratio Bone/Blood” value (2 Hr.)?
Its value is 8.25.

And the “Ratio Bone/Marrow” value (2 Hr.)?
The value was 29.7.

What about the “Ratio Bone/Muscle” value (2 Hr.) of the same compound?
Its value is 104.

What about the “% Dose/1% Bodyweight, Average Bone” value (4 Hr.) of the same compound?
Its value is 4.79 % Dose/1% Bodyweight.

And the “% Dose in Whole Organ, Blood” value (4 Hr.)?
The value was 3.08 % Dose.

What about the “% Dose in Whole Organ, Kidney” value (4 Hr.) of the same compound?
Its value is 1.03 % Dose.

What about the “% Dose in Whole Organ, Liver” value (4 Hr.) of the same compound?
Its value is 0.354 % Dose.

What about the “% Dose in Whole Organ, Marrow” value (4 Hr.) of the same compound?
Its value is 0.432 % Dose.

What about the “% Dose in Whole Organ, Muscle” value (4 Hr.) of the same compound?
Its value is 1.92 % Dose.

What about the “% Dose in Whole Organ, One Femur” value (4 Hr.) of the same compound?
The value was 0.621 % Dose.

What about the “% Dose in Whole Organ, One Tibia” value (4 Hr.) of the same compound?
Its value is 0.471 % Dose.

What about the “% Dose in Whole Organ, Urine” value (4 Hr.) of the same compound?
Its value is 69.9 % Dose.

What about the “% Dose/1% Bodyweight, Blood” value (4 Hr.) of the same compound?
The value was 0.441 % Dose/1% Bodyweight.

And the “% Dose/1% Bodyweight, Femur” value (4 Hr.)?
Its value is 2.97 % Dose/1% Bodyweight.

What about the “% Dose/1% Bodyweight, Kidney” value (4 Hr.) of the same compound?
Its value is 2.28 % Dose/1% Bodyweight.

And the “% Dose/1% Bodyweight, Liver” value (4 Hr.)?
The value was 0.184 % Dose/1% Bodyweight.

What about the “% Dose/1% Bodyweight, Marrow” value (4 Hr.) of the same compound?
The value was 0.196 % Dose/1% Bodyweight.

What about the “% Dose/1% Bodyweight, Muscle” value (4 Hr.) of the same compound?
The value was 0.044 % Dose/1% Bodyweight.

What about the “% Dose/1% Bodyweight, Pelvis” value (4 Hr.) of the same compound?
Its value is 6.37 % Dose/1% Bodyweight.

And the “% Dose/1% Bodyweight, Spine” value (4 Hr.)?
The value was 5.16 % Dose/1% Bodyweight.

What about the “% Dose/1% Bodyweight, Tibia” value (4 Hr.) of the same compound?
The value was 2.76 % Dose/1% Bodyweight.

And the “Ratio Bone/Blood” value (4 Hr.)?
The value was 10.8.

What about the “Ratio Bone/Marrow” value (4 Hr.) of the same compound?
The value was 24.4.

What about the “Ratio Bone/Muscle” value (4 Hr.) of the same compound?
The value was 108.
